Assays:
Carbonic anhydrase 1 = Carbonic anhydrase 1 (Homo sapiens, UniProt P00915)
Carbonic anhydrase 2 = Carbonic anhydrase 2 (Homo sapiens, UniProt P00918)
Carbonic anhydrase 9 = Carbonic anhydrase 9 (Homo sapiens, UniProt Q16790)

Chain of Carbonic anhydrase 1 (P00915 whole entry): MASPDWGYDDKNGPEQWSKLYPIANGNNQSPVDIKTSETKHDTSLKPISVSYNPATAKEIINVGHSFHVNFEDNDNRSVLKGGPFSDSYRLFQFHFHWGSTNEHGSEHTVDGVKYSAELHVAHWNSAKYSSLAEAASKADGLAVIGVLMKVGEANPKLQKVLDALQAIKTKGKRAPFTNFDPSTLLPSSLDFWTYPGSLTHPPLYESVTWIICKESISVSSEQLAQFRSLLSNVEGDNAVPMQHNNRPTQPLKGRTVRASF

Row | Ki (Carbonic anhydrase 9) [nM] | SMILES | Ki (Carbonic anhydrase 1) [nM] | Ki (Carbonic anhydrase 2) [nM]
1 | 101 | CC(=O)N[C@@H]1[C@@H](OC(C)=O)[C@H](OC(C)=O)[C@@H](COC(C)=O)O[C@H]1n1cc(-c2ccc(S(N)(=O)=O)cc2)nn1 | – | –
2 | 121 | NS(=O)(=O)c1ccc(-c2cn([C@@H]3O[C@H](CO)[C@@H](O)[C@H]3O)nn2)cc1 | – | –
3 | 9.9 | COC(=O)[C@H]1O[C@@H](n2cc(-c3ccc(S(N)(=O)=O)cc3)nn2)[C@H](OC(C)=O)[C@@H](OC(C)=O)[C@@H]1OC(C)=O | – | –
4 | 5.4 | NS(=O)(=O)c1ccc(-c2cn(C3O[C@H](CO)[C@@H](O)[C@H](O)[C@@H]3O)nn2)cc1 (single isomer, unassigned) | 2.8 | 7.6
5 | 134 | CC(=O)O[C@H]1[C@H](OC(C)=O)C(n2cc(-c3ccc(S(N)(=O)=O)cc3)nn2)OC[C@H]1OC(C)=O (single isomer, unassigned) | – | –

Second part, the compound before the results:

Row | SMILES | Ki (Carbonic anhydrase 9) [nM] | Ki (Carbonic anhydrase 1) [nM] | Ki (Carbonic anhydrase 2) [nM]
6 | CC(=O)OC[C@H]1O[C@@H](n2cc(-c3ccc(S(N)(=O)=O)cc3)nn2)[C@H](OC(C)=O)[C@@H](OC(C)=O)[C@@H]1OC(C)=O | – | 4400 | 9.1
7 | COC(=O)[C@H]1O[C@@H](n2cc(-c3ccc(S(N)(=O)=O)cc3)nn2)[C@H](O)[C@@H](O)[C@@H]1O | 8.4 | – | –
8 | NS(=O)(=O)c1ccc(-c2cn([C@@H]3O[C@H](CO)[C@@H](O)[C@H](O)[C@H]3O)nn2)cc1 | 89 | 9.4 | 380
9 | NS(=O)(=O)c1ccc(-c2cn([C@@H]3O[C@H](CO)[C@H](O)[C@H](O)[C@H]3O)nn2)cc1 | 120 | 9.3 | 8.8
10 | CC(=O)OC[C@H]1O[C@@H](n2cc(-c3ccc(S(N)(=O)=O)cc3)nn2)[C@H](OC(C)=O)[C@@H](OC(C)=O)[C@@H]1O[C@H]1O[C@H](COC(C)=O)[C@@H](OC(C)=O)[C@H](OC(C)=O)[C@H]1OC(C)=O | 120 | – | –
11 | NS(=O)(=O)c1ccc(-c2cn([C@@H]3O[C@H](CO)[C@@H](O[C@H]4O[C@H](CO)[C@@H](O)[C@H](O)[C@H]4O)[C@H](O)[C@H]3O)nn2)cc1 | 130 | – | –
12 | CC(=O)OC[C@H]1O[C@@H](n2cc(-c3ccc(S(N)(=O)=O)cc3)nn2)[C@H](OC(C)=O)[C@@H](OC(C)=O)[C@H]1OC(C)=O | 110 | 4300 | 8.7
13 | CC(=O)OC[C@H]1OC(n2cc(-c3ccc(S(N)(=O)=O)cc3)nn2)[C@@H](OC(C)=O)[C@@H](OC(C)=O)[C@@H]1OC(C)=O (single isomer, unassigned) | 5 | 1.6 | 2.1
